According to ChEMBL document CHEMBL1201862, “PubChem BioAssay data set” (2004):
The source made the active and inactive calls.

What was measured:
[1] = target: T1, Histone-lysine N-methyltransferase NSD2 (Homo sapiens, UniProt O96028); assay type: biochemical
T1 sequence (O96028 whole entry): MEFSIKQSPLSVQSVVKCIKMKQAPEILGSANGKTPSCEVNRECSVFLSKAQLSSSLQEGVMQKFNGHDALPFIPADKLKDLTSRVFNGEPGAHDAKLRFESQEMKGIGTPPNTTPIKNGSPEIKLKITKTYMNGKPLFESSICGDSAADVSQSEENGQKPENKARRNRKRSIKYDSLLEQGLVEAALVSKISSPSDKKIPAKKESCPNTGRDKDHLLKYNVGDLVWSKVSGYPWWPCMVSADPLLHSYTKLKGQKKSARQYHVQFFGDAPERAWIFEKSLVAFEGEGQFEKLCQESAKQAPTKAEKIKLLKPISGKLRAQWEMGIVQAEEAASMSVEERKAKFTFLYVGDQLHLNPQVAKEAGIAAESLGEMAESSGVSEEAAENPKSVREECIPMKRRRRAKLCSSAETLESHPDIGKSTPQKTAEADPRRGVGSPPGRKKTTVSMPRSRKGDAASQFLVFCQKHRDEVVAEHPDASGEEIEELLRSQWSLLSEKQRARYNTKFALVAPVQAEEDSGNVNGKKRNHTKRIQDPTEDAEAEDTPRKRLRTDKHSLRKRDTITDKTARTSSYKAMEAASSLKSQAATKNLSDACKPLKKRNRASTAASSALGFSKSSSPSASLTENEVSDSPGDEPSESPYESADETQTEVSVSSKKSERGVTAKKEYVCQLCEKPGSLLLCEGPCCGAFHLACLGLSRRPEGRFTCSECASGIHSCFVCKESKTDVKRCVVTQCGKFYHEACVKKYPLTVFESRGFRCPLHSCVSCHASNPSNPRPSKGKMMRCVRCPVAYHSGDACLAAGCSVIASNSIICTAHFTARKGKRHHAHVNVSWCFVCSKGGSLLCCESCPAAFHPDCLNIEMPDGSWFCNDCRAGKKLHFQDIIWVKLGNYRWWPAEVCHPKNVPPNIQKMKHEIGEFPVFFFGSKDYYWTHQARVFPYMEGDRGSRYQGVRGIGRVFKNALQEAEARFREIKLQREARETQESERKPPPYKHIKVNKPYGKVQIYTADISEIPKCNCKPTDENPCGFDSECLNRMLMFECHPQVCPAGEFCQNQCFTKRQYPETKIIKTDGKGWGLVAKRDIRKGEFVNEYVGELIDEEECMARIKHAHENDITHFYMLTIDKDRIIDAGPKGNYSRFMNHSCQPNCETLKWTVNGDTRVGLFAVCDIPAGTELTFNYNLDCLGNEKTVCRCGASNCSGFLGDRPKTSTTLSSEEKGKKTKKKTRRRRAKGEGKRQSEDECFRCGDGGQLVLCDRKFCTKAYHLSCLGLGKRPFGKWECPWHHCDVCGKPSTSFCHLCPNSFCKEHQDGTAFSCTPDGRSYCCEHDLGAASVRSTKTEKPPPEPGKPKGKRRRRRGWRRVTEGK

[2] = target: Cytochrome P450 3A4 (Homo sapiens, UniProt P08684);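 further: CYP3A4 tested as one member of a cytochrome P450 panel screen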
[3] = target: Cytochrome P450 2D6 (Homo sapiens, UniProt P10635);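 further: CYP2D6 member of a cytochrome P450 panel assay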
[4] = target: Cytochrome P450 2C19 (Homo sapiens, UniProt P33261); test: Cytochrome panel assay with activity outcomes. Panel member name: p450-cyp2c19 Compounds with AC50 equal or less than 10 uM are considered active; assay type: functional; settings: read-out: AC50
[5] = target: Cytochrome P450 2C9 (Homo sapiens, UniProt P11712)
[6] = target: T2, Cytochrome P450 1A2 (Homo sapiens, UniProt P05177);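 further: PubChem cytochrome P450 panel assay, CYP1A2 panel member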
T2 sequence (P05177 whole entry): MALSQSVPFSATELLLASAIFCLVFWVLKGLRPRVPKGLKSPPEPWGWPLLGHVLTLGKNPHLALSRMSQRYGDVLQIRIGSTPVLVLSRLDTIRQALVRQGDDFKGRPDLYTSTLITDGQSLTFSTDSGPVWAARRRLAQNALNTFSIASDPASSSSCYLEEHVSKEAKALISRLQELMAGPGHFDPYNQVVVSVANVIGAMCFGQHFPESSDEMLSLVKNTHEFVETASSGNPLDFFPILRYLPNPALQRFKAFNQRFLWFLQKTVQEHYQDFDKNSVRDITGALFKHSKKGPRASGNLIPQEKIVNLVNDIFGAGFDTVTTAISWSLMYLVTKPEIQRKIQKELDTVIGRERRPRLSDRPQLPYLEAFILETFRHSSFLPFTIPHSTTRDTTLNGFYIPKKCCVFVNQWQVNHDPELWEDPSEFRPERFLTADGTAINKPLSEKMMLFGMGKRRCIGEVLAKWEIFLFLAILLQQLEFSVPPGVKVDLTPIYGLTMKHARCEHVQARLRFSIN

[7] = Luminescence Cell-Based Dose Confirmation HTS to Identify Inhibitors of Platelet Dense Granule Release. [Related pubchem assays: 1663 (Primary HTS), 1678 (Summary of Project)]; assay type: functional
[8] = target: Luciferin 4-monooxygenase (Photinus pyralis, UniProt P08659); test: inhibition of purified Photinus pyralis luciferase – biochemical, luminescence, dose response (AID 1891)
[9] = target: T3, Corticotropin-releasing factor receptor 2/Corticotropin-releasing factor-binding protein (Homo sapiens, UniProt P24387+Q13324); test: activators of CRF receptor 2 with binding protein – uHTS hits, confirmation (AID 602473); assay type: functional; settings: read-out: EC50_Mean
T3 sequence (Q13324 whole entry): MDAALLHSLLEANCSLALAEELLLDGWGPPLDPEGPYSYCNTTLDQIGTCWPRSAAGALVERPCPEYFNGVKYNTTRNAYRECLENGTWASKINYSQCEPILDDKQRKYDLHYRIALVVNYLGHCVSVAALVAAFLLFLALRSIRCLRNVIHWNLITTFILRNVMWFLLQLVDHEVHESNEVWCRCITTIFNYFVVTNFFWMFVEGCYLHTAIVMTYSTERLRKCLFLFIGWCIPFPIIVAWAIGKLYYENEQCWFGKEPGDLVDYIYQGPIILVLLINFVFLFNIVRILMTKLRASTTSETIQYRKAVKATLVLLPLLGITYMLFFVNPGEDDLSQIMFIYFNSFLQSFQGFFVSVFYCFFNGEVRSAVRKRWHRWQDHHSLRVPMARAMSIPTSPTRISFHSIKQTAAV
T3 sequence (P24387 whole entry): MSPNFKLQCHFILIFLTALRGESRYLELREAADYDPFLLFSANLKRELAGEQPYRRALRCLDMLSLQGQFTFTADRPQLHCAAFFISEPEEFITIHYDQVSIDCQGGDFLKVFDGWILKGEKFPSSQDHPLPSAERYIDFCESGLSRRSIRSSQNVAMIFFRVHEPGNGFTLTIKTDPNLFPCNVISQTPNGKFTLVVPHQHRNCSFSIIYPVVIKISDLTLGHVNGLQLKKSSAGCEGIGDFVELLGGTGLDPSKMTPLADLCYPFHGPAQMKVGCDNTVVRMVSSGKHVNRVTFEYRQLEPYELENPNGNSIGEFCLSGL

[10] = target: T3, Corticotropin-releasing factor receptor 2/Corticotropin-releasing factor-binding protein; test: Dose Response confirmation of uHTS hits for small molecule antagonists of the CRF-binding protein and CRF-R2 receptor complex.; assay type: functional; settings: read-out: IC50_Mean
[11] = target: T4, Short transient receptor potential channel 4 (Mus musculus, UniProt Q9QUQ5); test: calcium entry via TRPC4 opening agents – cell-based, HEK293 TRPC4/mu-opioid, Fluo-4 calcium, dose response (AID 434937); assay type: functional
T4 sequence (Q9QUQ5 whole entry): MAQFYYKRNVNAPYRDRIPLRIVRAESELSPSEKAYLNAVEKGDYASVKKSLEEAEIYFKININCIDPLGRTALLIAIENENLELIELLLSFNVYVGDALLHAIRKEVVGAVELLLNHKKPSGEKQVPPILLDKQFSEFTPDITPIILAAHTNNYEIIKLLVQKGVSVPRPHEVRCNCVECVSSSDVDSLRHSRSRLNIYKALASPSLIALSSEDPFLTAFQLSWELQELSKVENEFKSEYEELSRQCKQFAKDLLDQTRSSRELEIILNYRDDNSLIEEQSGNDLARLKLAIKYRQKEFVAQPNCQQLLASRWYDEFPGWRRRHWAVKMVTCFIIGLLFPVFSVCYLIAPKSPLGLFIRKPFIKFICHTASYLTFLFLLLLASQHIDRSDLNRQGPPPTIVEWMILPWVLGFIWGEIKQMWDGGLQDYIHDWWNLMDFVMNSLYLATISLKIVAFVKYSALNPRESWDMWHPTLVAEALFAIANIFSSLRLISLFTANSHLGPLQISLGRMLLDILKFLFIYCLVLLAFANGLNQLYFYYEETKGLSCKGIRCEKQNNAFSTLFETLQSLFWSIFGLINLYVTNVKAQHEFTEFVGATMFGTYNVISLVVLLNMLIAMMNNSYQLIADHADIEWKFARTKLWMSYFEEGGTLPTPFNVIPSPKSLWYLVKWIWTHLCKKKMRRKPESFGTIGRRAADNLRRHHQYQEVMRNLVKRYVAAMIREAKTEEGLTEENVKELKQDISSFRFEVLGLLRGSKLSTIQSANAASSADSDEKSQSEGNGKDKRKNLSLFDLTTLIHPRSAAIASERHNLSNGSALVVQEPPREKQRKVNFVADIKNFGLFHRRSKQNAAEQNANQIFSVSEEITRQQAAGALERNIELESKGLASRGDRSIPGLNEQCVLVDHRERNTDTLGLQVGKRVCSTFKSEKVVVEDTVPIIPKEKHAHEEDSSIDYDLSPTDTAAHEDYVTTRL

[12] = target: T5, Rac GTPase-activating protein 1 (Homo sapiens, UniProt Q9H0H5); test: blockers of MgcRacGAP-driven Rac1 GTP hydrolysis – biochemical, ADP Hunter fluorescence, primary and confirmatory, confirmation (AID 624330); assay type: functional
T5 sequence (Q9H0H5 whole entry): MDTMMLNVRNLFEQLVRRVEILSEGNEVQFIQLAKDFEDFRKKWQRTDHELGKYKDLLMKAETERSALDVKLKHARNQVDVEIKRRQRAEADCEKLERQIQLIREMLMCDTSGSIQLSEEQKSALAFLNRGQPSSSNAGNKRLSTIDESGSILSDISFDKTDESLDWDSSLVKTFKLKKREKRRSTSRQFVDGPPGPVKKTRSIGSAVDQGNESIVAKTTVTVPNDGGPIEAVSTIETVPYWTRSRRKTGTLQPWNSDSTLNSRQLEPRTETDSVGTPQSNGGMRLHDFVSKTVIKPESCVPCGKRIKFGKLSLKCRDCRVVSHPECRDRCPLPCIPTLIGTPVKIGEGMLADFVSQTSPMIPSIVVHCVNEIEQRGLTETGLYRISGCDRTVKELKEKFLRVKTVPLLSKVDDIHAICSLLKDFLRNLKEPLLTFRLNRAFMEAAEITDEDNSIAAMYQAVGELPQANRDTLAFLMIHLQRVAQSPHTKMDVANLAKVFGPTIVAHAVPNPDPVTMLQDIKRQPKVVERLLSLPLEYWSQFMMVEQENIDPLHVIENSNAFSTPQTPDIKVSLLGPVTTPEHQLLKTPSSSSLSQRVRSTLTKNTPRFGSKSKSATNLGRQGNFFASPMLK

Cytochrome P450 2D6, sequence (P10635 whole entry): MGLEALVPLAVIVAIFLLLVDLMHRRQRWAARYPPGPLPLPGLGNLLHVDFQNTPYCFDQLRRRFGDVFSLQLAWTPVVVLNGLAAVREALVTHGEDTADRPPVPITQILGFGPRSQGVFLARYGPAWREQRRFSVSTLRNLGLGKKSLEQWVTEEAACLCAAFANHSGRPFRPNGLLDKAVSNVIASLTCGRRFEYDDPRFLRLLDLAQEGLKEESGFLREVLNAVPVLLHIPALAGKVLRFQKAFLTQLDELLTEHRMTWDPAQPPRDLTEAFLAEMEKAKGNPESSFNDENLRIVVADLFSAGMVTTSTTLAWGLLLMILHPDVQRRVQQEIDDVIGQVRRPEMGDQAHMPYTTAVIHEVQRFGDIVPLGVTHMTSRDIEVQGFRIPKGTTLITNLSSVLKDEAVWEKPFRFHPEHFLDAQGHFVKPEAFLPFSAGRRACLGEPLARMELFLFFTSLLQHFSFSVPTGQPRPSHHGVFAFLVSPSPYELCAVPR
Luciferin 4-monooxygenase, sequence (P08659 whole entry): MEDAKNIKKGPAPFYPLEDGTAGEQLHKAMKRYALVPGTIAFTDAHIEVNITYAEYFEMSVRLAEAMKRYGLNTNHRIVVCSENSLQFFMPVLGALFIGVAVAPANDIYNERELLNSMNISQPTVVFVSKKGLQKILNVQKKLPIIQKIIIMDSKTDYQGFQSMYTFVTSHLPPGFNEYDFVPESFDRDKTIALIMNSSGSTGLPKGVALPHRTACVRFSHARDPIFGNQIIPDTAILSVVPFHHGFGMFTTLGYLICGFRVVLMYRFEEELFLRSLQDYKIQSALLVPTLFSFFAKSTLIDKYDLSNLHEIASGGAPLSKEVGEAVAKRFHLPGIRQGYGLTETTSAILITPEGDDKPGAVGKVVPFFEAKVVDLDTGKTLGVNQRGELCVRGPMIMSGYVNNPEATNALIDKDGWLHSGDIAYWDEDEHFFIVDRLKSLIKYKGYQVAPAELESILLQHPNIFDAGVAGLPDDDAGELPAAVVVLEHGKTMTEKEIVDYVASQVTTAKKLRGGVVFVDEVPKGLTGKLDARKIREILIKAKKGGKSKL
Cytochrome P450 3A4, sequence (P08684 whole entry): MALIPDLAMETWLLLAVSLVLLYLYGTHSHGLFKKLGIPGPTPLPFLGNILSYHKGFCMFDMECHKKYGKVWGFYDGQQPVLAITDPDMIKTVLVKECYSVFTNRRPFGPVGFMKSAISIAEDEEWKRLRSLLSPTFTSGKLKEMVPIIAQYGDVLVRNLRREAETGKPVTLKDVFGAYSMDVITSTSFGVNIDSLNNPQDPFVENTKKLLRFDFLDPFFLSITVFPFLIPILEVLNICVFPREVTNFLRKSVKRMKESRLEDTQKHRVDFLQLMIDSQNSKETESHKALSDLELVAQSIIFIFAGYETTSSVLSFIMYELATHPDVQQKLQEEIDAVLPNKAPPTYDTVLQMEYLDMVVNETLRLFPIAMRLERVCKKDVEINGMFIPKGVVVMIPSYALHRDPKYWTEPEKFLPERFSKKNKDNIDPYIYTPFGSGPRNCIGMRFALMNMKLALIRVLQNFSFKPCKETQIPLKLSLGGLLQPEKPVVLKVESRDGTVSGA
Cytochrome P450 2C9, sequence (P11712 whole entry): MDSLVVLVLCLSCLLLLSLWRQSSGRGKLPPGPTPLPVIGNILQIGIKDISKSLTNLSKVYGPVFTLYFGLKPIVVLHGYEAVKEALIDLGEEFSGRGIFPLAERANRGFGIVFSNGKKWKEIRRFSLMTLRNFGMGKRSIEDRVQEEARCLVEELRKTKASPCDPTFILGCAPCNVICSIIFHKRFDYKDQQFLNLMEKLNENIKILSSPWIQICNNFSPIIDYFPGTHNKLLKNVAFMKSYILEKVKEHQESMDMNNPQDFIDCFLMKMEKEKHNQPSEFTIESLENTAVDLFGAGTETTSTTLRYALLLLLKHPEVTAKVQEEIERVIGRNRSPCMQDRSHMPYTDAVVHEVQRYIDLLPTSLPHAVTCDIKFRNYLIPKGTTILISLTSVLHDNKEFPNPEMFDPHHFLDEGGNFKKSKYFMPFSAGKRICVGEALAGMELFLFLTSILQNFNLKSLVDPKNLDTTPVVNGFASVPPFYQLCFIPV
Cytochrome P450 2C19, sequence (P33261 whole entry): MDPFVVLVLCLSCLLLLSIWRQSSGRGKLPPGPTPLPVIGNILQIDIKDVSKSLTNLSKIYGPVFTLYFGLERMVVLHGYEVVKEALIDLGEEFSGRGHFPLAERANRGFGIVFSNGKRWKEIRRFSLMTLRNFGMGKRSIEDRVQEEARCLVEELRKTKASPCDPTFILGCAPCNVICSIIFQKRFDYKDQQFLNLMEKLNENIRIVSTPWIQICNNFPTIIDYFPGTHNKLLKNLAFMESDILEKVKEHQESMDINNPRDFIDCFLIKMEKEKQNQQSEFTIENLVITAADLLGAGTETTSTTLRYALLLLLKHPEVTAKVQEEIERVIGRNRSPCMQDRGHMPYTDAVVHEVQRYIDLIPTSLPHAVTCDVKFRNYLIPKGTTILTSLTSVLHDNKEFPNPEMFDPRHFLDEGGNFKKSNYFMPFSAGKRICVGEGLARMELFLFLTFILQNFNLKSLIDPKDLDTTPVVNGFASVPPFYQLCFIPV

AC50 [3]	Structure (SMILES)	EC50 [7]	EC50 [8]	further results
–	CCN(CC)CCCN(Cc1cc2cc(OC)ccc2nc1O)C(=O)Nc1ccc(F)cc1	–	–	AC50 [1]: 12.4 µM (active)
12.6 µM (inconclusive)	COCCn1c(=O)c(-c2ccccc2)nc2cnc(N(C)C)nc21	–	–	AC50 [2]: 39.8 µM (inconclusive); AC50 [4]: 2 µM (inconclusive)
31.6 µM (inconclusive)	COc1ccccc1CCn1c(=O)c(-c2cccc(Cl)c2)nc2cncnc21	–	–	–
1 µM (inconclusive)	CCOc1cc(/C=N/NC(=O)c2cccc([N+](=O)[O-])c2)ccc1OS(=O)(=O)c1ccccc1	–	–	AC50 [5]: 11.2 µM (inconclusive); AC50 [6]: 7.08 µM (inconclusive); AC50 [2]: 8.91 µM (inconclusive)
6.31 µM (inconclusive)	C[C@@H]1CC[C@@H]2C(=O)N3[C@@H](CC[C@@H](C)[C@@H]3c3ccc(-c4ccco4)cc3)C(=O)N2[C@H]1c1ccc(-c2ccco2)cc1	–	–	–
–	COc1ccc2cc(C(=O)N3CCN(Cc4ccc5c(c4)OCO5)CC3)[nH]c2c1	> 112 µM (not active)	> 112 µM (not active)	EC50 [9]: > 53 µM (inactive); IC50 [10]: > 47.1 µM (inactive)
–	CC(C)N1C[C@@]23C=C[C@@H](O2)C(C(=O)OCc2ccccc2)[C@H]3C1=O (stereo partly drawn)	> 112 µM (not active)	> 112 µM (not active)	–
–	COCc1cc(C)nc(SCC[N+](C)(C)CC(=O)c2ccc(Br)cc2)c1C#N	> 112 µM (not active)	> 112 µM (not active)	–
–	Cc1ccc(NC(=O)Cc2nc(CCl)cs2)cc1	> 112 µM (not active)	> 112 µM (not active)	–
–	Cc1ccc(NC(=O)CNCC(c2ccccc2)N(C)C)cc1F (stereo not drawn)	–	–	EC50 [11]: 0.596 µM (active); IC50 [12]: 70.8 µM (active)
–	CSC1=NSC2=NC(=O)/C(=C/c3coc4ccccc4c3=O)C(=N)N12	–	–	AC50 [1]: 16.5 µM (active)
5.01 µM (inconclusive)	N#Cc1cccc(-c2nc(NCc3cccs3)c3ccccc3n2)c1	–	–	–
–	O=C(Nc1ccccc1C(=O)N/N=C/c1ccncc1)c1ccccc1	3.06 µM (active)	< 0.088 µM (active)	–
–	COc1ccccc1NS(=O)(=O)c1ccc(NC(C)=O)cc1	> 112 µM (not active)	> 112 µM (not active)	–
–	COc1ccc(/C=N/NC(=O)c2nonc2C)cc1	2.84 µM (active)	9.4 µM (active)	–
–	CCN(CC)CCC(=O)c1ccc(F)cc1	–	–	AC50 [1]: > 20 µM (inactive)
22.4 µM (inconclusive)	C=CCN=C(NC#N)SCc1ccccc1	–	–	AC50 [5]: 15.8 µM (inconclusive)
